Assay results published in patent publication US4464385A, “Treatment of diabetic complications with hydantoins” (Alcon Laboratories, Inc., priority 1982, dated 1984).

Key:
cataracts in rats = test: Prevention or retardation of cataracts in galactose-fed rats; assay type: in vivo, rat; conditions: 30% galactose diet, A,C,E 0.0025%, B,D 0.01%
Outline: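 Rats given test compound mixed into diet (by % of total feed weight; 0.01% designed to supply 20 mg/kg/day) ad libitum for thirty days after a two-day chow acclimatization, twelve animals per treatment. Eyes examined by handheld ophthalmoscope and/or penlight and each eye graded.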

aldose reductase = conditions: U.S. Pat. No. 4,130,714; cited from earlier work

CSc1ccc2c(c1)C1(CCO2)NC(=O)NC1=O (stereo not shown) [A]
19 eyes: Number of Eyes Observed, - (Normal) (cataracts in rats; Study Day 4)
8.3%: % of Total Eyes, - (Normal) (cataracts in rats; Study Day 5) | % of Total Eyes, - (Normal) (cataracts in rats; Study Day 6) | % of Total Eyes, - (Normal) (cataracts in rats; Study Day 8) | % of Total Eyes, - (Normal) (cataracts in rats; Study Day 10) | % of Total Eyes, + (vacuole) (cataracts in rats; Study Day 26) | % of Total Eyes, + (vacuole) (cataracts in rats; Study Day 28) | % of Total Eyes, N (nuclear cataract) (cataracts in rats; Study Day 28)
7 eyes: Number of Eyes Observed, S (snowflake) (cataracts in rats; Study Day 14)
83.3%: % of Total Eyes, S (snowflake) (cataracts in rats; Study Day 24) | % of Total Eyes, S (snowflake) (cataracts in rats; Study Day 28) | % of Total Eyes, S (snowflake) (cataracts in rats; Study Day 30)
6 eyes: Number of Eyes Observed, ± (cataracts in rats; Study Day 8) | Number of Eyes Observed, + (vacuole) (cataracts in rats; Study Day 20) | Number of Eyes Observed, + (vacuole) (cataracts in rats; Study Day 22)
75.0%: % of Total Eyes, S (snowflake) (cataracts in rats; Study Day 20) | % of Total Eyes, S (snowflake) (cataracts in rats; Study Day 22)
8 eyes: Number of Eyes Observed, ± (cataracts in rats; Study Day 6) | Number of Eyes Observed, + (vacuole) (cataracts in rats; Study Day 18)
50.0%: % of Total Eyes, + (vacuole) (cataracts in rats; Study Day 16) | % of Total Eyes, S (snowflake) (cataracts in rats; Study Day 16)
16.7%: % of Total Eyes, + (vacuole) (cataracts in rats; Study Day 5) | % of Total Eyes, S (snowflake) (cataracts in rats; Study Day 12) | % of Total Eyes, + (vacuole) (cataracts in rats; Study Day 24)
70.8%: % of Total Eyes, + (vacuole) (cataracts in rats; Study Day 12)
12 eyes: Number of Eyes Observed, + (vacuole) (cataracts in rats; Study Day 16) | Number of Eyes Observed, S (snowflake) (cataracts in rats; Study Day 16)
25.0%: % of Total Eyes, + (vacuole) (cataracts in rats; Study Day 20) | % of Total Eyes, + (vacuole) (cataracts in rats; Study Day 22)
62.5%: % of Total Eyes, + (vacuole) (cataracts in rats; Study Day 10)
15 eyes: Number of Eyes Observed, + (vacuole) (cataracts in rats; Study Day 10)
33.3%: % of Total Eyes, + (vacuole) (cataracts in rats; Study Day 18)
24 eyes: Number of Eyes Observed, - (Normal) (cataracts in rats; Study Day 2) | Number of Eyes Observed, - (Normal) (cataracts in rats; Study Day 3)
79.2%: % of Total Eyes, - (Normal) (cataracts in rats; Study Day 4)
14 eyes: Number of Eyes Observed, + (vacuole) (cataracts in rats; Study Day 6)
66.7%: % of Total Eyes, + (vacuole) (cataracts in rats; Study Day 8) | % of Total Eyes, + (vacuole) (cataracts in rats; Study Day 14) | % of Total Eyes, S (snowflake) (cataracts in rats; Study Day 18)
17 eyes: Number of Eyes Observed, + (vacuole) (cataracts in rats; Study Day 12)
4.2%: % of Total Eyes, + (vacuole) (cataracts in rats; Study Day 30)
91.7%: % of Total Eyes, S (snowflake) (cataracts in rats; Study Day 26)
5 eyes: Number of Eyes Observed, ± (cataracts in rats; Study Day 4)
12.5%: % of Total Eyes, S (snowflake) (cataracts in rats; Study Day 10) | % of Total Eyes, N (nuclear cataract) (cataracts in rats; Study Day 30)
3 eyes: Number of Eyes Observed, S (snowflake) (cataracts in rats; Study Day 10) | Number of Eyes Observed, ± (cataracts in rats; Study Day 12) | Number of Eyes Observed, N (nuclear cataract) (cataracts in rats; Study Day 30)
100.0%: % of Total Eyes, - (Normal) (cataracts in rats; Study Day 2) | % of Total Eyes, - (Normal) (cataracts in rats; Study Day 3)
29.2%: % of Total Eyes, S (snowflake) (cataracts in rats; Study Day 14)
1 eyes: Number of Eyes Observed, ± (cataracts in rats; Study Day 14) | Number of Eyes Observed, + (vacuole) (cataracts in rats; Study Day 30)
2 eyes: Number of Eyes Observed, - (Normal) (cataracts in rats; Study Day 5) | Number of Eyes Observed, - (Normal) (cataracts in rats; Study Day 6) | Number of Eyes Observed, - (Normal) (cataracts in rats; Study Day 8) | Number of Eyes Observed, - (Normal) (cataracts in rats; Study Day 10) | Number of Eyes Observed, + (vacuole) (cataracts in rats; Study Day 26) | Number of Eyes Observed, + (vacuole) (cataracts in rats; Study Day 28) | Number of Eyes Observed, N (nuclear cataract) (cataracts in rats; Study Day 28)
20 eyes: Number of Eyes Observed, S (snowflake) (cataracts in rats; Study Day 24) | Number of Eyes Observed, S (snowflake) (cataracts in rats; Study Day 28) | Number of Eyes Observed, S (snowflake) (cataracts in rats; Study Day 30)
22 eyes: Number of Eyes Observed, S (snowflake) (cataracts in rats; Study Day 26)
18 eyes: Number of Eyes Observed, ± (cataracts in rats; Study Day 5) | Number of Eyes Observed, S (snowflake) (cataracts in rats; Study Day 20) | Number of Eyes Observed, S (snowflake) (cataracts in rats; Study Day 22)
0 eyes: Number of Eyes Observed, + (vacuole) (cataracts in rats; Study Day 2) | Number of Eyes Observed, N (nuclear cataract) (cataracts in rats; Study Day 2) | Number of Eyes Observed, S (snowflake) (cataracts in rats; Study Day 2) | Number of Eyes Observed, ± (cataracts in rats; Study Day 2) | Number of Eyes Observed, + (vacuole) (cataracts in rats; Study Day 3) | Number of Eyes Observed, N (nuclear cataract) (cataracts in rats; Study Day 3) | Number of Eyes Observed, S (snowflake) (cataracts in rats; Study Day 3) | Number of Eyes Observed, ± (cataracts in rats; Study Day 3) | Number of Eyes Observed, + (vacuole) (cataracts in rats; Study Day 4) | Number of Eyes Observed, N (nuclear cataract) (cataracts in rats; Study Day 4) | Number of Eyes Observed, S (snowflake) (cataracts in rats; Study Day 4) | Number of Eyes Observed, N (nuclear cataract) (cataracts in rats; Study Day 5) | Number of Eyes Observed, S (snowflake) (cataracts in rats; Study Day 5) | Number of Eyes Observed, N (nuclear cataract) (cataracts in rats; Study Day 6) | Number of Eyes Observed, S (snowflake) (cataracts in rats; Study Day 6) | Number of Eyes Observed, N (nuclear cataract) (cataracts in rats; Study Day 8) | Number of Eyes Observed, S (snowflake) (cataracts in rats; Study Day 8) | Number of Eyes Observed, N (nuclear cataract) (cataracts in rats; Study Day 10) | Number of Eyes Observed, - (Normal) (cataracts in rats; Study Day 12) | Number of Eyes Observed, N (nuclear cataract) (cataracts in rats; Study Day 12) | Number of Eyes Observed, - (Normal) (cataracts in rats; Study Day 14) | Number of Eyes Observed, N (nuclear cataract) (cataracts in rats; Study Day 14) | Number of Eyes Observed, - (Normal) (cataracts in rats; Study Day 16) | Number of Eyes Observed, N (nuclear cataract) (cataracts in rats; Study Day 16) | Number of Eyes Observed, ± (cataracts in rats; Study Day 16) | Number of Eyes Observed, - (Normal) (cataracts in rats; Study Day 18) | Number of Eyes Observed, N (nuclear cataract) (cataracts in rats; Study Day 18) | Number of Eyes Observed, ± (cataracts in rats; Study Day 18) | Number of Eyes Observed, - (Normal) (cataracts in rats; Study Day 20) | Number of Eyes Observed, N (nuclear cataract) (cataracts in rats; Study Day 20) | Number of Eyes Observed, ± (cataracts in rats; Study Day 20) | Number of Eyes Observed, - (Normal) (cataracts in rats; Study Day 22) | Number of Eyes Observed, N (nuclear cataract) (cataracts in rats; Study Day 22) | Number of Eyes Observed, ± (cataracts in rats; Study Day 22) | Number of Eyes Observed, - (Normal) (cataracts in rats; Study Day 24) | Number of Eyes Observed, N (nuclear cataract) (cataracts in rats; Study Day 24) | Number of Eyes Observed, ± (cataracts in rats; Study Day 24) | Number of Eyes Observed, - (Normal) (cataracts in rats; Study Day 26) | Number of Eyes Observed, N (nuclear cataract) (cataracts in rats; Study Day 26) | Number of Eyes Observed, ± (cataracts in rats; Study Day 26) | Number of Eyes Observed, - (Normal) (cataracts in rats; Study Day 28) | Number of Eyes Observed, ± (cataracts in rats; Study Day 28) | Number of Eyes Observed, - (Normal) (cataracts in rats; Study Day 30) | Number of Eyes Observed, ± (cataracts in rats; Study Day 30)
16 eyes: Number of Eyes Observed, + (vacuole) (cataracts in rats; Study Day 8) | Number of Eyes Observed, + (vacuole) (cataracts in rats; Study Day 14) | Number of Eyes Observed, S (snowflake) (cataracts in rats; Study Day 18)
0%: % of Total Eyes, + (vacuole) (cataracts in rats; Study Day 2) | % of Total Eyes, N (nuclear cataract) (cataracts in rats; Study Day 2) | % of Total Eyes, S (snowflake) (cataracts in rats; Study Day 2) | % of Total Eyes, + (vacuole) (cataracts in rats; Study Day 3) | % of Total Eyes, N (nuclear cataract) (cataracts in rats; Study Day 3) | % of Total Eyes, S (snowflake) (cataracts in rats; Study Day 3) | % of Total Eyes, + (vacuole) (cataracts in rats; Study Day 4) | % of Total Eyes, N (nuclear cataract) (cataracts in rats; Study Day 4) | % of Total Eyes, S (snowflake) (cataracts in rats; Study Day 4) | % of Total Eyes, N (nuclear cataract) (cataracts in rats; Study Day 5) | % of Total Eyes, S (snowflake) (cataracts in rats; Study Day 5) | % of Total Eyes, N (nuclear cataract) (cataracts in rats; Study Day 6) | % of Total Eyes, S (snowflake) (cataracts in rats; Study Day 6) | % of Total Eyes, N (nuclear cataract) (cataracts in rats; Study Day 8) | % of Total Eyes, S (snowflake) (cataracts in rats; Study Day 8) | % of Total Eyes, N (nuclear cataract) (cataracts in rats; Study Day 10) | % of Total Eyes, - (Normal) (cataracts in rats; Study Day 12) | % of Total Eyes, N (nuclear cataract) (cataracts in rats; Study Day 12) | % of Total Eyes, - (Normal) (cataracts in rats; Study Day 14) | % of Total Eyes, N (nuclear cataract) (cataracts in rats; Study Day 14) | % of Total Eyes, - (Normal) (cataracts in rats; Study Day 16) | % of Total Eyes, N (nuclear cataract) (cataracts in rats; Study Day 16) | % of Total Eyes, - (Normal) (cataracts in rats; Study Day 18) | % of Total Eyes, N (nuclear cataract) (cataracts in rats; Study Day 18) | % of Total Eyes, - (Normal) (cataracts in rats; Study Day 20) | % of Total Eyes, N (nuclear cataract) (cataracts in rats; Study Day 20) | % of Total Eyes, - (Normal) (cataracts in rats; Study Day 22) | % of Total Eyes, N (nuclear cataract) (cataracts in rats; Study Day 22) | % of Total Eyes, - (Normal) (cataracts in rats; Study Day 24) | % of Total Eyes, N (nuclear cataract) (cataracts in rats; Study Day 24) | % of Total Eyes, - (Normal) (cataracts in rats; Study Day 26) | % of Total Eyes, N (nuclear cataract) (cataracts in rats; Study Day 26) | % of Total Eyes, - (Normal) (cataracts in rats; Study Day 28) | % of Total Eyes, - (Normal) (cataracts in rats; Study Day 30)
4 eyes: Number of Eyes Observed, + (vacuole) (cataracts in rats; Study Day 5) | Number of Eyes Observed, ± (cataracts in rats; Study Day 10) | Number of Eyes Observed, S (snowflake) (cataracts in rats; Study Day 12) | Number of Eyes Observed, + (vacuole) (cataracts in rats; Study Day 24)
58.4%: % of Total Eyes, + (vacuole) (cataracts in rats; Study Day 6)

O=C1NC(=O)C2(CCSc3ccc(F)cc32)N1 (single isomer, unassigned) [d-6'-fluoro-spiro[imidazolidine-4,4'-thiochroman]-2,5' dione]
enhanced activity: activity in preventing chronic diabetic complications (aldose reductase)
